For this assay, the target named is T1, human full length HSD11 β 1 (Homo sapiens, UniProt P28845).
T1 construct: transient expression of human full length HSD11 β 1 expression vector; host or cells: CHO cells (transient transfection)
Kind of assay: In Vitro HSD11β1 Inhibition Assay. The assay is classed as cell-based. Conditions: CHO cells transiently expressing human HSD11β1; 200 nM cortisone+500 uM NADPH overnight; cortisone to cortisol by LC/MS-MS; read-out: 11βHSD1 (IC50). The procedure, abridged:
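CHO cells transiently transfected with human full-length HSD11β1 were re-seeded after 24 h and, 24 h later, incubated overnight with 200 nM cortisone plus 500 uM NADPH and inhibitor. Cortisone-to-cortisol conversion was measured by LC/MS-MS. IC50 from an 8-point log concentration–inhibition curve.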

T1 sequence (P28845 whole entry): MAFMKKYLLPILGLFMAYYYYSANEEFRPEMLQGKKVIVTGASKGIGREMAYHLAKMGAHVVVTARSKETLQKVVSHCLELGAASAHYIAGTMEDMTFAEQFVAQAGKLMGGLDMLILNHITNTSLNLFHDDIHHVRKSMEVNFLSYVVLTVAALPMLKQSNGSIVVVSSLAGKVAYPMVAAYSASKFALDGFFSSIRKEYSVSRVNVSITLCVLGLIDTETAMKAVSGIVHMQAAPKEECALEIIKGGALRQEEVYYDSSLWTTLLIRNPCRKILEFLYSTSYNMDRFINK

`O=C(O)C1CCCC2C1CCCN2C(=O)CC(c1cccs1)c1c[nH]c2cccc(Cl)c12` (centres unmarked) [Compound 206, 1-[3-(4-chloro-1H-indol-3-yl)-3-(thiophen-2-yl)propanoyl]decahydroquinoline-5-carboxylic acid]: the IC50 is below 100 nM.

Regarding `Cc1cccc2c1c(C(C)CC(=O)N1CCCC3C(C(=O)O)CCCC31)cn2C` (centres unmarked) [Compound 207, 1-[3-(1,4-dimethyl-1H-indol-3-yl)butanoyl]decahydroquinoline-5-carboxylic acid], the 50% inhibitory concentration (IC50) is above 250 nM.

Regarding `CC(C)Oc1cccc2c1c(C(C)CC(=O)N1CCCC3C(C(=O)O)CCCC31)cn2C` (centres unmarked) [Compound 208, 1-{3-[1-methyl-4-(propan-2-yloxy)-1H-indol-3-yl]butanoyl}decahydroquinoline-5-carboxylic acid], the IC50 lay within 100 to 150 nM.

As to `CC(CC(=O)N1CCCC2C(C(=O)O)CCCC21)c1cn(C)c2cccc(Cl)c12` (centres unmarked) [Compound 209, 1-[3-(4-chloro-1-methyl-1H-indol-3-yl)butanoyl]decahydroquinoline-5-carboxylic acid], the IC50 fell in the range of 150 to 200 nM.

`CCn1cc(C(C)CC(=O)N2CCCC3C(C(=O)O)CCCC32)c2c(C3CC3)cccc21` (centres unmarked) [Compound 210, 1-[3-(4-cyclopropyl-1-ethyl-1H-indol-3-yl)butanoyl]decahydroquinoline-5-carboxylic acid]: the IC50 is 100 to 150 nM.

Take `CC(C)c1cccc2[nH]cc(C(C)CC(=O)N3CCCC4C(C(=O)O)CCCC43)c12` (centres unmarked) [Compound 211, 1-{3-[4-(propan-2-yl)-1H-indol-3-yl]butanoyl}decahydroquinoline-5-carboxylic acid]: the IC50 is below 100 nM.

Consider `CC(CC(=O)N1CCCC2C(C(=O)O)CCCC21)c1c[nH]c2cccc(-c3ccco3)c12` (centres unmarked) [Compound 215, 1-{3-[4-(furan-2-yl)-1H-indol-3-yl]butanoyl}decahydroquinoline-5-carboxylic acid], for which the IC50 was below 100 nM.

As to `CC(CC(=O)N1CCCC2C(C(=O)O)CCCC21)c1cn(C)c2cccc(-c3ccco3)c12` (centres unmarked) [Compound 216, 1-{3-[4-(furan-2-yl)-1-methyl-1H-indol-3-yl]butanoyl}decahydroquinoline-5-carboxylic acid], the IC50 was below 100 nM.

Turning to `CC(CC(=O)N1CCCC2CC(C(=O)O)CCC21)c1c[nH]c2cccc(C3CC3)c12` (centres unmarked) [Compound 217, 1-[3-(4-cyclopropyl-1H-indol-3-yl)butanoyl]decahydroquinoline-6-carboxylic acid], the concentration for half-maximal inhibition (IC50) lay in the range of 100 to 150 nM.

On to `CC(CC(=O)N1CCCC2C(C(=O)O)CCCC21)c1c[nH]c2ccc(F)c(C3CC3)c12` (centres unmarked) [Compound 220, 1-[3-(4-cyclopropyl-5-fluoro-1H-indol-3-yl)butanoyl]decahydroquinoline-5-carboxylic acid], for which the IC50 is below 100 nM.

`CC(CC(=O)N1CCCC2C(C(=O)O)CCCC21)c1c[nH]c2cccc(-c3ccco3)c12` (centres unmarked) [Compound 221, 1-{3-[4-(furan-2-yl)-1H-indol-3-yl]butanoyl}decahydroquinoline-5-carboxylic acid]: the IC50 was below 100 nM.

For `CC(CC(=O)N1CCCC2C(C(=O)O)CCCC21)c1c[nH]c2cccc(-c3ccco3)c12` (centres unmarked) [Compound 222, 1-{3-[4-(furan-2-yl)-1H-indol-3-yl]butanoyl}decahydroquinoline-5-carboxylic acid], the IC50 fell in the range of 100 to 150 nM.

For `CC(CC(=O)N1CCC(C(=O)O)C2CCCCC21)c1c[nH]c2cccc(-c3ccco3)c12` (centres unmarked) [Compound 227, 1-{3-[4-(furan-2-yl)-1H-indol-3-yl]butanoyl}decahydroquinoline-4-carboxylic acid], the IC50 is above 250 nM.

`CC(CC(=O)N1CCCC2CC(C(=O)O)CCC21)c1c[nH]c2cccc(Cl)c12` (centres unmarked) [Compound 228, 1-[3-(4-chloro-1H-indol-3-yl)butanoyl]decahydroquinoline-6-carboxylic acid]: the IC50 is above 250 nM.

Consider `CC(CC(=O)N1CCCC2CC(C(=O)O)CCC21)c1c[nH]c2cccc(-c3ccco3)c12` (centres unmarked) [Compound 229, 1-{3-[4-(furan-2-yl)-1H-indol-3-yl]butanoyl}decahydroquinoline-6-carboxylic acid], for which the IC50 is 100 to 150 nM.

As to `CC(CC(=O)N1C(C)CCC2C(C(=O)O)CCCC21)c1c[nH]c2cccc(C3CC3)c12` (centres unmarked) [Compound 230, 1-[3-(4-cyclopropyl-1H-indol-3-yl)butanoyl]-2-methyldecahydroquinolin-5-carboxylic acid], the IC50 was 150 to 200 nM.

For the compound `CC(CC(=O)N1C(C)CCC2C(C(=O)O)CCCC21)c1c[nH]c2cccc(-c3ccco3)c12` (centres unmarked) [Compound 231, 1-{3-[4-(furan-2-yl)-1H-indol-3-yl]butanoyl}-2-methyldecahydroquinoline-5-carboxylic acid], the IC50 was 150 to 200 nM.

As for `CC(CC(=O)N1C(C)CCC2C(C(=O)O)CCCC21)c1c[nH]c2cccc(-c3cccs3)c12` (centres unmarked) [Compound 232, 2-methyl-1-{3-[4-(thiophen-2-yl)-1H-indol-3-yl]butanoyl}decahydroquinoline-5-carboxylic acid], the IC50 was in the range of 150 to 200 nM.

Regarding `CC(CC(=O)N1C(C)CCC2C(C(=O)O)CCCC21)c1c[nH]c2cccc(-c3cccs3)c12` (centres unmarked) [Compound 233, 2-methyl-1-{3-[4-(thiophen-2-yl)-1H-indol-3-yl]butanoyl}decahydroquinoline-5-carboxylic acid], the IC50 was above 250 nM.

Regarding `CC(CC(=O)N1C(C)CCC2C(C(=O)O)CCCC21)c1c[nH]c2cccc(Cl)c12` (centres unmarked) [Compound 234, 1-[3-(4-chloro-1H-indol-3-yl)butanoyl]-2-methyldecahydroquinoline-5-carboxylic acid], the IC50 was above 250 nM.

In the case of `CC(CC(=O)N1CCC(=O)C2CCCCC21)c1c[nH]c2cccc(Cl)c12` (centres unmarked) [Compound 235, 1-[3-(4-chloro-1H-indol-3-yl)butanoyl]octahydroquinolin-4(1H)-one], the IC50 is below 100 nM.

`Cc1ccc(-c2cccc3[nH]cc(C(C)CC(=O)N4CCCC5C(C(=O)O)CCCC54)c23)o1` (centres unmarked) [Compound 236, 1-{3-[4-(5-methylfuran-2-yl)-1H-indol-3-yl]butanoyl}decahydroquinoline-5-carboxylic acid]: the IC50 was in the range of 100 to 150 nM.

`CC(CC(=O)N1CCCC2C1CCCC2(C)C(=O)O)c1c[nH]c2cccc(C3CC3)c12` (centres unmarked) [Compound 237, 1-[3-(4-cyclopropyl-1H-indol-3-yl)butanoyl]-5-methyldecahydroquinoline-5-carboxylic acid]: the IC50 was 150 to 200 nM.

On to `CC(CC(=O)N1CCCC2C(C(=O)O)CCCC21)c1c[nH]c2cccc(-c3ccccn3)c12` (centres unmarked) [Compound 238, 1-{3-[4-(pyridin-2-yl)-1H-Indol-3-yl]butanoyl}decahydroquinoline-5-carboxylic acid], for which the IC50 is above 250 nM.

As to `Cc1cc(-c2cccc3[nH]cc(C(C)CC(=O)N4CCCC5C(C(=O)O)CCCC54)c23)on1` (centres unmarked) [Compound 239, 1-{3-[4-(3-methyl-1,2-oxazol-5-yl)-1H-indol-3-yl]butanoyl}decahydroquinoline-5-carboxylic acid], the IC50 is above 250 nM.

For `CC(CC(=O)N1CCCC2C(c3nnn[nH]3)CCCC21)c1c[nH]c2cccc(C3CC3)c12` (centres unmarked) [Compound 240, 3-(4-cyclopropyl-1H-indol-3-yl)-1-[5-(1H-tetrazol-5-yl)octahydroquinolin-1(2H)-yl]butan-1-one], the IC50 was above 250 nM.

Consider `COn1cc(C(C)CC(=O)N2CCCC3C(C(=O)O)CCCC32)c2c(C3CC3)cccc21` (centres unmarked) [Compound 241, 1-[3-(4-cyclopropyl-1-methoxy-1H-indol-3-yl)butanoyl]decahydroquinoline-5-carboxylic acid], for which the IC50 was above 250 nM.

In the case of `COCn1cc(C(C)CC(=O)N2CCCC3C(C(=O)O)CCCC32)c2c(C3CC3)cccc21` (centres unmarked) [Compound 242, 1-{3-[4-cyclopropyl-1-(methoxymethyl)-1H-indol-3-yl]butanoyl}decahydroquinoline-5-carboxylic acid], the 50% inhibitory concentration (IC50) was above 250 nM.

Consider `CC(CC(=O)N1CCCC2C(C(=O)O)CCCC21)c1c[nH]c2cccc(-c3ccc(F)cc3)c12` (centres unmarked) [Compound 243, 1-{3-[4-(4-fluorophenyl)-1H-indol-3-yl]butanoyl}decahydroquinoline-5-carboxylic acid], for which the IC50 is below 100 nM.

As for `CC(CC(=O)N1CCCC2C(C(=O)O)CCCC21)c1c[nH]c2cccc(-c3cccn3C)c12` (centres unmarked) [Compound 244, 1-{3-[4-(1-methyl-1H-pyrrol-2-yl)-1H-indol-3-yl]butanoyl}decahydroquinoline-5-carboxylic acid], the IC50 was above 250 nM.

With `CC(CC(=O)N1CCCC2C(C(=O)O)CCCC21)c1c[nH]c2cccc(-c3ccc(F)o3)c12` (centres unmarked) [Compound 245, 1-{3-[4-(5-fluorofuran-2-yl)-1H-indol-3-yl]butanoyl}decahydroquinoline-5-carboxylic acid], the IC50 is below 100 nM.

Regarding `CC(CC(=O)N1CCCC2CCCCC21)c1c[nH]c2cccc(-c3ccc(C(=O)O)o3)c12` (centres unmarked) [Compound 246, 5-{3-[4-(octahydroquinolin-1(2H)-yl)-4-oxobutan-2-yl]-1H-indol-4-yl}furan-2-carboxylic acid], the IC50 was above 250 nM.

Take `CC(CC(=O)N1CCCC2C(C(=O)NCC(=O)O)CCCC21)c1c[nH]c2cccc(C3CC3)c12` (centres unmarked) [Compound 247, N-({1-[3-(4-cyclopropyl-1H-indol-3-yl)butanoyl]decahydroquinolin-5-yl}carbonyl)glycine]: the IC50 is above 250 nM.

Consider `CC(CC(=O)N1CCCC2C(C(=O)O)CCCC21)c1c(C#N)[nH]c2cccc(C3CC3)c12` (centres unmarked) [Compound 252, 1-[3-(2-cyano-4-cyclopropyl-1H-indol-3-yl)butanoyl]decahydroquinoline-5-carboxylic acid], for which the IC50 was above 250 nM.

For the compound `CC(CC(=O)N1CCCC2C(C(=O)O)CCCC21)c1c[nH]c2cccc(-c3ccc(F)cc3)c12` (centres unmarked) [Compound 253, 1-{3-[4-(4-fluorophenyl)-1H-indol-3-yl]butanoyl}decahydroquinoline-5-carboxylic acid], the IC50 is below 100 nM.

For the origin of these results see patent publication US9453014B2, “Cyclic amide derivatives as inhibitors of 11-β-hydroxysteroid dehydrogenase and uses thereof” (CONNEXIOS LIFE SCIENCES PVT. LTD., priority 2011, dated 2016).
